How the values were obtained:
[1] = Single crystal X-ray structure, unit cell parameters; type: physicochemical; conditions: for R: crystal structure determination; for Volume / ρ (calculated): unit cell; for Z / a / b / c / α / β / γ: unit cell parameter; for Isostructural to Methyl Ethyl ketone Solvate?: eplerenone crystalline solvate
Source text: Tables 8, 9 and 10 below summarize the unit cell parameters determined for Form H, Form L, and several solvated crystalline forms. […]

[2] = Thermogravimetric analysis of solvates (desolvation); type: physicochemical; conditions: eplerenone crystalline solvate; extrapolated from final solvent weight loss step, TGA, 10° C./minute, nitrogen purge
Procedure: Thermogravimetric analysis of solvates was performed using a TA Instruments TGA 2950 thermogravimetric analyzer. Samples were placed in an unsealed aluminum pan under nitrogen purge. Starting temperature was 25° C. with the temperature increased at a rate of about 10° C./minute.

[3] = test system: myocardial fibrosis in animal models; conditions: cited from earlier work

SMILES	Isostructural to Methyl Ethyl ketone Solvate? [1]	Desolvation Temperature [2] [°C]	further results
COC(=O)[C@@H]1CC2=CC(=O)CC[C@]2(C)C2=CC[C@@]3(C)C(CCC34CCC(=O)O4)C21 (stereo partly drawn) [9,11 olefin]	–	–	R [1]: 0.0764; Volume [1]: 2069.3 Å; ρ (calculated) [1]: 1.279 g/mL; Z [1]: 4; a [1]: 20.90 Å Å; b [1]: 15.74 Å Å; c [1]: 6.29 Å Å; α [1]: 90°; β [1]: 90°; γ [1]: 90°
CC(=O)O [Acetic Acid]	Yes	–	–
CC(C)=O [Acetone]	Yes	117	–
CCCCOC(C)=O [Butyl Acetate]	Yes	108	–
ClC(Cl)Cl [Chloroform]	Yes	125	–
CCO [Ethanol]	Yes	166	–
CCOC(=O)CC [Ethyl Propionate]	Yes	122	–
CC(=O)OCC(C)C [Isobutyl Acetate]	Yes	112	–
CC(C)O [Isopropanol]	Yes	121	–
COC(C)=O [Methyl Acetate]	Yes	103	–
CCC(C)=O [Methyl Ethyl Ketone]	–	89	–
CCCOC(C)=O [Propyl Acetate]	Yes	130	–
CC(O)CO (stereo not drawn) [Propylene Glycol]	Yes	188	–
C1CCOC1 [Tetrahydrofuran]	Yes	136	–
Cc1ccccc1 [Toluene]	Yes	83	–
COC(=O)[C@@H]1CC23O[C@@H]2C(=O)CC[C@]3(C)[C@@]23OC2C[C@@]2(C)C(CCC24CCC(=O)O4)C13 (stereo partly drawn) [diepoxide, 7-methyl hydrogen 4α,5α:9α,11α-diepoxy-17-hydroxy-3-oxo-17α-pregnane-7α,21-dicarboxylate, γ-lactone]	–	–	R [1]: 0.0762; Volume [1]: 2119.0 Å; ρ (calculated) [1]: 1.349 g/mL; Z [1]: 4; a [1]: 21.328 Å Å; b [1]: 16.16 Å Å; c [1]: 6.15 Å Å; α [1]: 90°; β [1]: 90°; γ [1]: 90°
CCCCO [n-Butanol]	Yes	103	–
CCCCCCCCO [n-Octanol]	Yes	116	–
CCCO [n-Propanol]	Yes	–	–
CC(=O)S[C@@H]1CC2=CC(=O)CC[C@]2(C)[C@H]2CC[C@@]3(C)[C@@H](CC[C@@]34CCC(=O)O4)[C@H]12 [spironolactone]	–	–	myocardial fibrosis [3]: prevents myocardial fibrosis
CC(=O)OC(C)(C)C [t-Butyl Acetate]	Yes	109	–
